The values below come from US6620828B2, “Thiazole compounds and pharmaceutical compositions for inhibiting protein kinases and methods for their use” (Agouron Pharmaceuticals, Inc., priority 1999, dated 2003).

The test system of assay [1] is lung cancer cells (line MV522). Briefly: Cancer cell proliferation (MV522) assay. Type of assay: cell-based. The settings on record: MV522, Table 3.
The test system of assay [2] is human umbilical vein endothelial cells (HUVEC). As to the kind of experiment: HUVEC proliferation assay. Type of assay: cell-based. As to conditions: Homo sapiens, HUVEC, Table 3. The essentials: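 Readout was MTT dye reduction (A595) after 72 h of stimulation with VEGF at 6 ng/ml final. Compound, in 0.1% DMSO final, was added 1 h before VEGF to HUVEC starved 24 h in 1% FBS. % inhibition was scaled between VEGF-alone and unstimulated wells; IC50 was fitted from triplicate dose curves.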

Another assay has as its target T1, FGF-R1 (Homo sapiens, UniProt P11362, C488A/C584S/L457V).
T1 construct: starting from the endogenous methionine residue 456 to glutamate 766; made in house; host or cells: baculovirus vector expression system
Briefly: FGF-R spectrophotometric assay. The assay is classed as biochemical. The settings on record: Table 3; % inh @ 1 uM; read-out: FGF-P Ki (nM) (% inh @ 1 uM). As to the method: FGF-R1 Construct for Assay: The intracellular kinase domain of human FGF-R1 was expressed using the baculovirus vector expression system starting from the endogenous methionine residue 456 to glutamate 766, according to the residue numbering system of Mohammadi et al., Mol. Cell. Biol., 16, 977-989 (1996). In addition, the construct also has the following 3 amino acid substitutions: L457V, C488A, and C584S.
The spectrophotometric assay was carried out as described above for VEGF-R2, except for the following changes in concentration: FGF-R=50 nM, ATP=2 mM, and poly(E4Y1)=15 mM.

For assay [3], the target named is T2, unphosphorylated VEGF-R2Δ50 (FLVK) (Homo sapiens, UniProt P35968, DEL940-989/E990V).
T2 construct: VEGF-R2Δ50 contains residues 806-939 and 990-1171; made in house; host or cells: baculovirus/insect cells
T2 sequence (P35968 with tags, fused parts or gaps DEL940-989/E990V limits assumed): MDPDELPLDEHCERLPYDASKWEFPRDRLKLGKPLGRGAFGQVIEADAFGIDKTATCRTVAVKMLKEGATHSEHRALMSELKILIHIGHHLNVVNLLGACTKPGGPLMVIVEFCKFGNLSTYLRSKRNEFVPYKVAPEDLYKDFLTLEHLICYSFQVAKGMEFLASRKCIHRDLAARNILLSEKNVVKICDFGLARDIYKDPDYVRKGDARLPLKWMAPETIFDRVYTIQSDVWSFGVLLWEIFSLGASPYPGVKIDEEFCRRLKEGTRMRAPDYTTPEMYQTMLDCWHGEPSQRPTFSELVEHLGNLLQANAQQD
As to the kind of experiment: VEGF-R2 coupled spectrophotometric assay, unphosphorylated enzyme (FLVK). Type of assay: biochemical. The settings on record: Table 3; some entries 'Slow binder'. The essentials: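 Unphosphorylated VEGF-R2Δ50 (5 to 40 nM) with 20 mM poly(E4Y1), 3 mM ATP, 60 mM MgCl2, 2 mM MnCl2 in 200 mM Hepes pH 7.5. ADP production coupled via PK/LDH to NADH oxidation, read at 340 nm. Ki from activity at varying compound concentrations.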

In the next assay the target is T3, LCK tyrosine kinase (Homo sapiens, UniProt P06239, C224D/P223M).
T3 construct: starting from amino acid residue 223 to the end of the protein at residue 509; made in house; host or cells: insect cells
T3 sequence (P06239 223-509 P223M/C224D): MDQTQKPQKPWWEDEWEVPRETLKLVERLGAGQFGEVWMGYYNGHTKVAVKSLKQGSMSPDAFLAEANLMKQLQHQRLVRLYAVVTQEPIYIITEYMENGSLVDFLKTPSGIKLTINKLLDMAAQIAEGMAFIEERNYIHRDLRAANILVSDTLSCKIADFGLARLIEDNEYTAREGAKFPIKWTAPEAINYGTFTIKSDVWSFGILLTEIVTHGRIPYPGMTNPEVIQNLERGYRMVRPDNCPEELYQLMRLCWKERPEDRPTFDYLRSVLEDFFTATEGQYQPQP
As to the kind of experiment: LCK spectrophotometric assay. Type of assay: biochemical. As to conditions: Table 3, read-out: LCK (% inh @ 1 uM).

Assay [4] addresses T4, phosphorylated VEGF-R2Δ50 (FLVK-P) (Homo sapiens, UniProt P35968, DEL940-989/E990V).
T4 construct: VEGF-R2Δ50 contains residues 806-939 and 990-1171; made in house; host or cells: baculovirus/insect cells
As to the kind of experiment: VEGF-R2 coupled spectrophotometric (FLVK-P) assay. The settings on record: Table 3; at 50 nM. Type of assay: biochemical. Put shortly:
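Baculovirus-expressed human VEGF-R2Δ50 (residues 806-939/990-1171, E990V) was autophosphorylated with 3 mM ATP, 40 mM MgCl2 for 2 h at 4° C. ADP formation was coupled via PK/LDH to NADH oxidation, read at 340 nm, with 5.1 mM poly(E4Y1), 1 mM ATP, 25 mM MgCl2, Hepes pH 7.5. Ki came from activity across compound concentrations.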

pIC50, pKi: −log10 of the molar value. Where a name gives a salt, the structure may show the parent alone. Where only a bound is given, the exact number is not on record here.

T1 sequence (P11362 456-766 L457V/C488A/C584S): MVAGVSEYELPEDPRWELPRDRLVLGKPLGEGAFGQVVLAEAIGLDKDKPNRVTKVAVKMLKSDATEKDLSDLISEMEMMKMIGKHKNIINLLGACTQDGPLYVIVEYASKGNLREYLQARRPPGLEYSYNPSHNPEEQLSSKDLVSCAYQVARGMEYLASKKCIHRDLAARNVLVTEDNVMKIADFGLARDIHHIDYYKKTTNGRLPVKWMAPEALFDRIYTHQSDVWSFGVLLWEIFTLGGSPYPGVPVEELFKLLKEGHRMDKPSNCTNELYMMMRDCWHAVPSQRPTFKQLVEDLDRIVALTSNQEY
T4 sequence (P35968 with tags, fused parts or gaps DEL940-989/E990V limits assumed): as the sequence (P35968 with tags, fused parts or gaps DEL940-989/E990V limits assumed) above

One may read the pIC50 as the negative decadic logarithm of the IC50, by convention in mol/L. Read a high pIC50 as a low IC50. In general, pKi refers to the negative decadic logarithm of the Ki, by convention in mol/L. Lower therefore signals a high Ki. As to `COc1cc(Nc2nc(N)c(-c3nc(-c4cc(NC(=O)OC(C)(C)C)ccc4Cl)no3)s2)cc(OC)c1OC` [B(12), (3-{5-[4-Amino-2-(3,4,5-trimethoxy-phenylamino)-thiazol-5-yl]-[1,2,4]oxadiazoyl}-4-chloro-phenyl)-carbamic acid tert-butyl ester], the negative-log IC50 (pIC50) in assay [1] was 5.44; in assay [2], 7.82. In addition, the inhibition at 1 µM at FGF-R1 stood at 52%; at LCK tyrosine kinase it was 29%. Also, the pKi in assay [3] is 8.80.
In the case of `COc1cc(Nc2nc(N)c(-c3nc(-c4cc(NC(=O)OC(C)(C)C)c(F)cc4Cl)no3)s2)cc(OC)c1OC` [B(14), (5-{5-[4-Amino-2-(3,4,5-trimethoxy-phenylamino)-thiazol-5-yl]-[1,2,4]oxadiazol-3-yl}-4-chloro-2-fluoro-phenyl)-carbamic acid tert-butyl ester], the pIC50 was < 5.00 in assay [1] and 7.96 in assay [2]. This molecule displayed an inhibition at 0.05 µM in assay [4] of 13%. In addition, the inhibition at 1 µM at FGF-R1 was determined as 46%; at LCK tyrosine kinase, 10%. The pKi in assay [3] is 9.12.
`COc1cccc(C(=O)Nc2cc(-c3noc(-c4sc(Nc5ccc(N6CCOCC6)nc5)nc4N)n3)c(F)cc2F)c1` [B(18), N-(5-{5-[4-Amino-2-(6-morpholin-4-yl-pyridin-3-ylamino)-thiazol-5-yl]-[1,2,4]oxadiazol-3-yl}-2,4-difluoro-phenyl)-3-methoxy-benzamide]: the pIC50 is 5.72 in assay [1] and 8.00 in assay [2]. Besides, the figures for the inhibition at 1 µM on FGF-R1 and at LCK tyrosine kinase were 8% and < 0%, respectively. For the same molecule, the pKi in assay [3] was 9.05.
As to `COc1cc(Nc2nc(N)c(-c3nc(-c4cccc(NC(=O)c5cc(C)c(O)c(C)c5)c4)cs3)s2)cc(OC)c1OC` [D(58), N-{3-[4′-Amino-2′-(3,4,5-trimethoxy-phenylamino)-[2,5′]bithiazolyl-4-yl]-phenyl}-4-hydroxy-3,5-dimethyl-benzamide], the pIC50 was < 5.00 in assay [1] and < 7.00 in assay [2]. Further, the inhibition at 1 µM is 23% at FGF-R1 and 29% at LCK tyrosine kinase. In assay [3], this molecule had a pKi of 8.85.
As to `COc1cc(Nc2nc(N)c(-c3nc(-c4cccc(NC(=O)CC5CC6CCC5C6)c4)cs3)s2)cc(OC)c1OC` (stereo not shown) [D(59), N-{3-[4′-Amino-2′-(3,4,5-trimethoxy-phenylamino)-[2,5′]bithiazolyl-4-yl]-phenyl}-2-bicyclo[2.2.1]hept-2-yl-acetamide], the pIC50 in assay [1] is 5.51; in assay [2], < 7.00. Further, the figures for the inhibition at 1 µM at FGF-R1 and at LCK tyrosine kinase were 54% and 44%, respectively. This molecule also gave a pKi in assay [3] of 8.55.
Consider `COc1cc(Nc2nc(N)c(-c3nc(-c4cccc(NC(=O)c5ncoc5-c5ccccc5)c4)cs3)s2)cc(OC)c1OC` [D(61), 5-Phenyl-oxazole-4-carboxylic acid {3-[4′-amino-2′-(3,4,5-trimethoxy-phenylamino)-[2,5′]bithiazolyl-4-yl]-phenyl}-amide], for which the values for the pIC50 in assay [1] and in assay [2] were < 5.00 and 6.78, respectively. Also, the inhibition at 1 µM at FGF-R1 was determined as 9%; at LCK tyrosine kinase, 4%.
`COc1cc(Nc2nc(N)c(-c3nc(-c4cc(NC(=O)c5cccc(Cl)c5)c(F)cc4F)no3)s2)cc(OC)c1OC` [D(66), N-(5-{5-[4-Amino-2-(3,4,5-trimethoxy-phenylamino)-thiazol-5-yl]-[1,2,4]oxadiazol-3-yl}-2,4-difluoro-phenyl)-3-chloro-benzamide]: the figures for the pIC50 in assay [1] and in assay [2] were < 5.00 and 8.38, respectively. For the same molecule, the inhibition at 1 µM on FGF-R1 amounted to 55%; on LCK tyrosine kinase it was 15%. The molecule further had a negative-log Ki (pKi) in assay [3] of 9.00.
In the case of `COc1cccc(C(=O)Nc2cc(-c3noc(-c4sc(Nc5cc(OC)c(OC)c(OC)c5)nc4N)n3)c(F)cc2F)c1` [D(67), N-(5-{5-[4-Amino-2-(3,4,5-trimethoxy-pheny-1-amino)-thiazol-5-yl]-[1,2,4]oxadiazol-3-yl}-2,4-difluoro-phenyl)-3-methoxy-benzamide], the pIC50 was < 5.00 in assay [1] and 8.39 in assay [2]. The inhibition at 1 µM on FGF-R1 was determined as 13%; on LCK tyrosine kinase it was 1%.
On to `COc1cc(Nc2nc(N)c(-c3nc(-c4cc(NC(=O)c5cccc(Cl)c5)c(F)cc4Cl)no3)s2)cc(OC)c1OC` [D(69), N-(5-{5-[4-Amino-2-(3,4,5-trimethoxy-phenylamino)-thiazol-5-yl]-[1,2,4]oxadiazol-3-yl}-4-chloro-2-fluoro-phenyl)-3-chloro-benzamide], for which the pIC50 in assay [1] was 5.64; in assay [2], 7.82. For the same molecule, the inhibition at 1 µM at FGF-R1 was 78%; on LCK tyrosine kinase, 79%. Also, in assay [3], the pKi is 9.30.
As to `COc1cccc(C(=O)Nc2cc(-c3noc(-c4sc(Nc5cc(OC)c(OC)c(OC)c5)nc4N)n3)c(Cl)cc2F)c1` [D(70), N-(5-{5-[4-Amino-2-(3,4,5-trimethoxy-phenylamino)-thiazol-5-yl]-[1,2,4]oxadiazol-3-yl}-4-chloro-2-fluoro-phenyl)-3-methoxy-benzamide TFA salt], the pIC50 was < 5.00 in assay [1] and 8.27 in assay [2]. In addition, the inhibition at 0.05 µM in assay [4] was 91%. Further, the inhibition at 1 µM was found to be 59% on FGF-R1 and 61% at LCK tyrosine kinase. In assay [3], this molecule gave a pKi of 8.46.
For the molecule `COc1cccc(C(=O)Nc2ccc(F)c(-c3noc(-c4sc(Nc5cc(OC)c(OC)c(OC)c5)nc4N)n3)c2)c1` [D(72), 3-[2-fluoro-5-[(3-methoxybenzoyl)amino]-phenyl]-5-[2-[(3,4,5-trimethoxyphenyl)amino]-4-amino-5-thiazolyl]-1,2,4-oxadiazole], the values for the pIC50 in assay [1] and in assay [2] were < 5.00 and 8.33, respectively. The inhibition at 1 µM at FGF-R1 came out at 49%; on LCK tyrosine kinase, 35%. In assay [3], the pKi was 9.05.
For `COc1cc(Nc2nc(N)c(-c3nc(-c4cc(NC(=O)c5cccc(Cl)c5)ccc4F)no3)s2)cc(OC)c1OC` [D(73)] the same measures were 5.35, 8.22, 56%, 41% and 8.92.
For the molecule `CNC(=O)Nc1nc(N)c(-c2nc(-c3cccc(NC(=O)c4cccc(OC)c4)c3)cs2)s1` [F(11), N-{3-[4′-Amino-2′-(3-methyl-ureido)-[2,5′]bithiazolyl-4-yl]-phenyl}-3-methoxy-benzamide], the pIC50 in assay [1] is 5.02; in assay [2], 7.92. The inhibition at 1 µM was found to be 25% at FGF-R1 and 15% on LCK tyrosine kinase. Also, in assay [3], the pKi was 9.59.
`Cc1cccc(C(=O)Nc2cccc(-c3noc(-c4sc(NC(=O)NC(C)C)nc4N)n3)c2)c1` [F(13), N-(3-{5-[4-Amino-2-(3-isopropyl-ureido)-thiazol-5-yl]-[1,2,4]oxadiazol-3-yl}-phenyl)-3-methyl-benzamide]: the pIC50 in assay [2] was 7.80. In addition, the inhibition at 1 µM turned out to be 25% at FGF-R1 and 29% at LCK tyrosine kinase. In assay [3], the pKi was 9.60.
For `CNC(=O)Nc1nc(N)c(-c2nc(-c3cc(NC(=O)c4cccc(OC)c4)c(F)cc3F)no2)s1` [O(4), N-(5-{5-[4-Amino-2-(3-methyl-ureido)-thiazol-5-yl]-[1,2,4]oxadiazol-3-yl}-2,4-difluoro-phenyl)-3-methoxy-benzamide], the pIC50 in assay [2] was 9.19. Also, the inhibition at 0.05 µM in assay [4] was determined as 87%. The inhibition at 1 µM turned out to be 9% on FGF-R1 and 3% on LCK tyrosine kinase. Moreover, the pKi in assay [3] is 9.72.
As for `Cc1cccc(C(=O)Nc2cccc(-c3noc(-c4sc(NC(=O)NCCCN5CCOCC5)nc4N)n3)c2)c1` [O(12), N-[3-(5-{4-Amino-2-[3-(3-morpholin-4-yl-propyl)-ureido]-thiazol-5-yl}-[1,2,4]oxadiazol-3-yl)-phenyl]-3-methyl-benzamide], the pIC50 in assay [1] is 4.36; in assay [2], 7.35. Moreover, the values for the inhibition at 1 µM on FGF-R1 and on LCK tyrosine kinase were 33% and 21%, respectively. Besides, in assay [3], the pKi is 9.72.
